Test results as given in US12077503B2, “Substituted cyclic amides and their use as herbicides” (FMC CORPORATION, priority 2015, dated 2024).

Key:
Assay type in all cases: in vivo
Kochia (Kochia scoparia) [1] = assay: Test A preemergence
How it was run: (§1)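 Each rating is a visual injury score from 0 to 100 given about 10 d after treatment, judged against untreated controls kept alongside in the greenhouse. In loam soil–sand blend, seeds got a preemergence directed soil spray, while postemergence plants were 2 to 10 cm tall at spraying.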

[2] = tested on: barnyardgrass (Echinochloa crus-galli); assay: Test A preemergence
How it was run: as §1

[3] = tested on: giant foxtail (Setaria faberii); assay: Test A preemergence
How it was run: as §1

[4] = tested on: pigweed (Amaranthus retroflexus); assay: Test A preemergence
[5] = tested on: ragweed (common ragweed, Ambrosia elatior); assay: Test A preemergence
How it was run: as §1

[6] = tested on: ryegrass, Italian (Italian ryegrass, Lolium multiflorum); assay: Test A preemergence
How it was run: as §1

[7] = tested on: Galium (catchweed bedstraw, Galium aparine); assay: Test A postemergence; settings: postemergence
How it was run: as §1

Kochia (Kochia scoparia) [8] = assay: Test A postemergence; settings: postemergence
How it was run: as §1

[9] = tested on: barnyardgrass (Echinochloa crus-galli); assay: Test A postemergence
How it was run: as §1

[10] = tested on: blackgrass (Alopecurus myosuroides); assay: Test A postemergence
How it was run: as §1

corn (Zea mays) = assay: Test A postemergence; settings: postemergence
How it was run: as §1

[11] = tested on: giant foxtail (Setaria faberii); assay: Test A postemergence; settings: postemergence
How it was run: as §1

[12] = tested on: pigweed (Amaranthus retroflexus); assay: Test A postemergence; settings: postemergence
How it was run: as §1

[13] = tested on: ragweed (common ragweed, Ambrosia elatior); assay: Test A postemergence; settings: postemergence
How it was run: as §1

[14] = tested on: ryegrass, Italian (Italian ryegrass, Lolium multiflorum); assay: Test A postemergence; settings: postemergence
How it was run: as §1

[15] = tested on: wheat (Triticum aestivum); assay: Test A postemergence; settings: postemergence
How it was run: as §1

[16] = tested on: barnyardgrass (Echinochloa crus-galli); assay: Test B flooded paddy test; settings: Flood, 250 g ai/ha; 0 to 100 scale where 0 is no effect and 100 is complete control; 13 to 15 d
How it was run: (§2)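 Rating scale 0–100 (visual, vs untreated controls) after a 13–15 d greenhouse period; application to the flood layer, 3 cm above soil and maintained; plants at 2-leaf stage when treated.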

[17] = tested on: ducksalad (Heteranthera limosa); assay: Test B flooded paddy test; settings: Flood, 250 g ai/ha; 0 to 100 scale where 0 is no effect and 100 is complete control; 13 to 15 d
How it was run: as §2

rice (Oryra sativa) = assay: Test B flooded paddy test; settings: Flood, 250 g ai/ha; 0 to 100 scale where 0 is no effect and 100 is complete control; 13 to 15 d
How it was run: as §2

[18] = tested on: sedge, umbrella (small-flower umbrella sedge, Cyperus difformis); assay: Test B flooded paddy test; settings: Flood, 250 g ai/ha; 0 to 100 scale where 0 is no effect and 100 is complete control; 13 to 15 d
How it was run: as §2

[19] = 125 g ai/ha, preemergence, 0 to 100 scale (0 no effect, 100 complete control)
[20] = Preemergence, 500 g ai/ha, 0 is no effect, 100 is complete control
[21] = 125 g ai/ha, visual injury rating on 0 to 100 scale (0 no effect, 100 complete control), approx. 10 d
[22] = 500 g ai/ha, 0 to 100 scale, 0 no effect, 100 complete control
[23] = 500 g ai/ha, postemergence, 0 to 100 scale, 0 no effect, 100 complete control
[24] = Postemergence, 125 g ai/ha, visual injury, 0 to 100 scale (0 no effect, 100 complete control), approx. 10 d

CN1CC(c2cccc(OC(F)(F)C(F)F)c2)C(C(=O)Nc2cccc(F)c2F)C1=O (stereo not drawn) [Compound 392]
0: Plant response rating, Sedge, Umbrella [18]
90: Plant response rating, Barnyardgrass [2, 19] | Barnyardgrass plant response rating (0 to 100 scale) [2, 20] | Plant response rating, Foxtail, Giant [3, 19] | Foxtail, Giant plant response rating (0 to 100 scale) [3, 20] | Plant response rating, Barnyardgrass [9, 23] | Foxtail, Giant plant response rating [11, 21] | Plant response rating, Foxtail, Giant [11, 22] | Plant response rating, Ducksalad [17]
50: Plant response rating, Kochia (Kochia (Kochia scoparia) [1]; [19]) | Kochia plant response rating (Kochia (Kochia scoparia) [8]; [21]) | Ragweed plant response rating [13, 21] | Ryegrass, Italian plant response rating [14, 21]
40: Plant response rating, Ryegrass, Italian [6, 19]
60: Ragweed plant response rating (0 to 100 scale) [5, 20] | Pigweed plant response rating [12, 21] | Plant response rating, Barnyardgrass [16]
20: Plant response rating, Ragweed [13, 22] | Wheat plant response rating [15, 21] | Plant response rating, Rice (rice (Oryra sativa))
70: Kochia plant response rating (0 to 100 scale) (Kochia (Kochia scoparia) [1]; [20]) | Plant response rating, Pigweed [4, 19] | Plant response rating, Ragweed [5, 19] | Galium plant response rating [7, 21] | Plant response rating, Galium [7, 22] | Plant response rating, Kochia (Kochia (Kochia scoparia) [8]; [22]) | Plant response rating, Blackgrass [10, 23] | Plant response rating, Blackgrass [10, 24] | Corn plant response rating (corn (Zea mays); [21]) | Plant response rating, Pigweed [12, 22] | Plant response rating, Wheat [15, 22]
80: Pigweed plant response rating (0 to 100 scale) [4, 20] | Ryegrass, Italian plant response rating (0 to 100 scale) [6, 20] | Plant response rating, Barnyardgrass [9, 24] | Plant response rating, Corn (corn (Zea mays); [22]) | Plant response rating, Ryegrass, Italian [14, 22]
